Experimental data published in patent US12516038B2, “Inhibitors of antigen presentation by HLA-DR” (Janssen Pharmaceutica NV, priority 2020, dated 2026).

Columns and labels:
HLA-DRB1*0401 = HLA-DRB1*0401 (Homo sapiens (Human), UniProt P01903+P01911, A100K/A169T/DEL228-266/F76Y/I96L/K127E/L162R/M171V/N62H/P40V/Q125Y/R42H/S133A/S149N/S66Y/V115G/V209L/W38E); experiment: HLA-DR4 HTRF assay; format: binding; details: inhibition of loading of Alexa Fluor 647-labeled Cit-CII peptide onto HLA-DR4 (CLIP cleaved)
Method in brief: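 HLA-DRB1*04:01 construct (α/β fused to human Fc, CLIP pre-cleaved by HRV3C overnight at 4° C) at 3 nM was preincubated 45 min with compound and 1 nM anti-Fc-Tb donor, then 40 nM Alexa647-Cit-CII1236-1249 peptide added. After 90 min at 37° C, the 665/620 nm HTRF ratio gave % inhibition; IC50 by nonlinear regression.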

[1] = system: human peripheral blood CD4+ helper T cells; experiment: Pan-CD4+ T cell activation (off-target assay); format: cell-based; details: anti-CD3/anti-CD28 stimulation, IL-2 production by ELISA
Method in brief: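 Human peripheral blood CD4+ T cells, with no APCs present, were stimulated with plate-bound anti-CD3 (1 μg/mL coating) plus soluble anti-CD28 (1 μg/mL) in the presence of compound or vehicle for 24 h. IL-2 in the supernatant was quantified by ELISA.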

[2] = system: HLA-DR4 restricted mouse T cell hybridoma line (DR4.CII.36.8) with HLA-DRB1*04:01-expressing Boleth cells; experiment: HLA-DR4-restricted peptide-specific T cell-based assay (hybridoma assay); details: 6 h, inhibition of IL-2 production, CII259-273 peptide presented by Boleth cells
Method in brief: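 Boleth cells (HLA-DRB1*04:01 B cell line) pre-incubated with compound 1 h at 37° C. in DMEM/1% FCS, then DR4.CII.36.8 mouse T cell hybridoma (CII259-273-specific) added for 6 h with CII259-273 peptide. Supernatant mouse IL-2 by AlphaLISA; IC50 by 4-PL fit of 8-point duplicate titrations.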

`NC(=O)c1ccc([C@H](Oc2ccc3c(c2)O[C@@H](c2ccccc2)CC3=O)c2ccncc2)cc1` (single isomer, unassigned) [Example 42a, 4-((*S)—(((*R)-4-oxo-2-phenylchroman-7-yl)oxy)(pyridin-4-yl)methyl)benzamide] was tested, and the IC50 (HLA-DRB1*0401) was 3.8 µM, the IC50 ([1]; Homo sapiens, T-cell, 24 h) was over 15 µM and the IC50 ([2]; Mus musculus, T-cell) was 11 µM.
`C[C@@H]1COc2cc(O[C@H](c3ccncc3)c3ccc(C(N)=O)cc3)ccc2C1=O` (single isomer, unassigned) [Example 44a, 4-((*S)—(((*R)-3-Methyl-4-oxochroman-7-yl)oxy)(pyridin-4-yl)methyl)benzamide] gave an IC50 (HLA-DRB1*0401) of 1.6 µM, an IC50 ([1]; Homo sapiens, T-cell, 24 h) of over 15 µM and an IC50 ([2]; Mus musculus, T-cell) of 1.6 µM.
With `Cc1c(O[C@H](c2ccc(C(N)=O)cc2)c2ccc(C(=O)O)cc2)ccc2c1OCCC2=O` (single isomer, unassigned) [Example 71a, (*R)-4-((4-carbamoylphenyl)((8-methyl-4-oxochroman-7-yl)oxy)methyl)benzoic acid] the IC50 (HLA-DRB1*0401) was 1.6 µM, the IC50 ([1]; Homo sapiens, T-cell, 24 h) was over 15 µM and the IC50 ([2]; Mus musculus, T-cell) was 1.5 µM.
With `N#Cc1ccc([C@@H](Oc2ccc3c(c2)OCCC3=O)c2ccncc2)c2ccccc12` (single isomer, unassigned) [Example 37b, (*S)-4-(((4-oxochroman-7-yl)oxy)(pyridin-4-yl)methyl)-1-naphthonitrile] the IC50 (HLA-DRB1*0401) was 24 µM, the IC50 ([1]; Homo sapiens, T-cell, 24 h) was 9.9 µM and the IC50 ([2]; Mus musculus, T-cell) was 5.1 µM.
Work on `NC(=O)c1ccc([C@@H](Oc2ccc3c(c2)OCCC3=O)c2ccnc3ccccc23)cc1` (single isomer, unassigned) [Example 22a, (*R)-4-(((4-oxochroman-7-yl)oxy)(quinolin-4-yl)methyl)benzamide] yielded an IC50 (HLA-DRB1*0401) of 1.3 µM, an IC50 ([1]; Homo sapiens, T-cell, 24 h) of 4.7 µM and an IC50 ([2]; Mus musculus, T-cell) of 1.9 µM.
`Cc1cc(C(N)=O)ccc1[C@H](Oc1ccc2c(c1)OCCC2=O)c1ccncc1` (single isomer, unassigned) [Example 36a, (*R)-3-methyl-4-(((4-oxochroman-7-yl)oxy)(pyridin-4-yl)methyl)benzamide] gave an IC50 (HLA-DRB1*0401) of 0.55 µM, an IC50 ([1]; Homo sapiens, T-cell, 24 h) of 4.7 µM and an IC50 ([2]; Mus musculus, T-cell) of 4.8 µM.
Work on `Cc1c(O[C@@H](c2ccc(C(N)=O)cc2)c2cccc[n+]2[O-])ccc2c1OCCC2=O` (single isomer, unassigned) [Example 65b, (*S)-2-((4-carbamoylphenyl)((8-methyl-4-oxochroman-7-yl)oxy)methyl)pyridine 1-oxide] yielded an IC50 (HLA-DRB1*0401) of 28 µM, an IC50 ([1]; 24 hrs) of 15 µM and an IC50 [2] of 2 µM.
Compound `NC(=O)c1ccc([C@H](Oc2ccc3c(c2)OCCC3=O)c2ccncc2-c2ccccc2)cc1` (single isomer, unassigned) [Example 25b, (*S)-4-(((4-oxochroman-7-yl)oxy)(3-phenylpyridin-4-yl)methyl)benzamide] has an IC50 (HLA-DRB1*0401) of 0.49 µM, an IC50 ([1]; Homo sapiens, T-cell, 24 h) of 3.2 µM and an IC50 ([2]; Mus musculus, T-cell) of 4.5 µM.
Work on `NC(=O)c1ccc([C@@H](Oc2ccc3c(c2)OCCC3=O)c2ccncc2)cc1` (single isomer, unassigned) [Example 11a, (*R)-4-(((4-oxochroman-7-yl)oxy)(pyridin-4-yl)methyl)benzamide] yielded an IC50 (HLA-DRB1*0401) of 0.72 µM, an IC50 ([1]; Homo sapiens, T-cell, 24 h) of over 15 µM and an IC50 ([2]; Mus musculus, T-cell) of 0.46 µM.
With `COc1cc(O[C@H](c2ccncc2)c2ccc(C(N)=O)cc2)cc2c1C(=O)CCO2` (single isomer, unassigned) [Example 77b, (*S)-4-(((5-methoxy-4-oxochroman-7-yl)oxy)(pyridin-4-yl)methyl)benzamide] the IC50 (HLA-DRB1*0401) was 1.5 µM, the IC50 ([1]; Homo sapiens, T-cell, 24 h) was 9.9 µM and the IC50 ([2]; Mus musculus, T-cell) was 5.5 µM.
For `Cc1cc([C@@H](Oc2ccc3c(c2C)OCCC3=O)c2ccc(C(N)=O)cc2)cc(C)n1` (single isomer, unassigned) [Example 111b, (*S)-4-((2,6-dimethylpyridin-4-yl)((8-methyl-4-oxochroman-7-yl)oxy)methyl)benzamide], the IC50 (HLA-DRB1*0401) was 0.56 µM, the IC50 ([1]; Homo sapiens, T-cell, 24 h) was 4.8 µM and the IC50 ([2]; Mus musculus, T-cell) was 0.021 µM.
With `CC1(C)COc2cc(O[C@H](c3ccncc3)c3ccc(C(N)=O)cc3)ccc2C1=O` (single isomer, unassigned) [Example 56b, (*S)-4-(((3,3-dimethyl-4-oxochroman-7-yl)oxy)(pyridin-4-yl)methyl)benzamide] the IC50 (HLA-DRB1*0401) was 1.3 µM, the IC50 ([1]; Homo sapiens, T-cell, 24 h) was over 15 µM and the IC50 ([2]; Mus musculus, T-cell) was 6 µM.
Work on `NC(=O)c1ccc([C@@H](Oc2ccc3c(c2)OCCC3=O)c2ccccc2)cc1` (single isomer, unassigned) [Example 29b, (*S)-4-(((4-oxochroman-7-yl)oxy)(phenyl)methyl)benzamide] yielded an IC50 (HLA-DRB1*0401) of 0.96 µM, an IC50 ([1]; Homo sapiens, T-cell, 24 h) of over 15 µM and an IC50 ([2]; Mus musculus, T-cell) of 5 µM.
